Here are results for seven compounds from ChEMBL document CHEMBL5291721, “A preclinical secondary pharmacology resource illuminates target-adverse drug reaction associations of marketed drugs” (Nat Commun, 2023).

Bounds are passed on as bounds.

Targets include Adenosine receptor A2a (Homo sapiens, UniProt P29274); Histamine H1 receptor (Homo sapiens, UniProt P35367); Motilin receptor (Homo sapiens, UniProt O43193).
The target of the next assay is T1, Adenosine receptor A3 (Homo sapiens, UniProt P0DMS8).
T1 sequence (P0DMS8 whole entry): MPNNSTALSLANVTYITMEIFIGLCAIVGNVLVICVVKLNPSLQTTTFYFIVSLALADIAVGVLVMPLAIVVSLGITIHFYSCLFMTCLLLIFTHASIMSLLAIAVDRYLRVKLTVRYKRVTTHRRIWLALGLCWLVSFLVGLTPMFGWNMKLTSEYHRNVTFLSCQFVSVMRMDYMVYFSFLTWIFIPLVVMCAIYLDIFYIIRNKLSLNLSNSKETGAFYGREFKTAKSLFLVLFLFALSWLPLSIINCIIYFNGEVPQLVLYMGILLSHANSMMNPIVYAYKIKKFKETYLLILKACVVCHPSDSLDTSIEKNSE

Assay [1] addresses T2, Alpha-2B adrenergic receptor (Homo sapiens, UniProt P18089).
T2 sequence (P18089 whole entry): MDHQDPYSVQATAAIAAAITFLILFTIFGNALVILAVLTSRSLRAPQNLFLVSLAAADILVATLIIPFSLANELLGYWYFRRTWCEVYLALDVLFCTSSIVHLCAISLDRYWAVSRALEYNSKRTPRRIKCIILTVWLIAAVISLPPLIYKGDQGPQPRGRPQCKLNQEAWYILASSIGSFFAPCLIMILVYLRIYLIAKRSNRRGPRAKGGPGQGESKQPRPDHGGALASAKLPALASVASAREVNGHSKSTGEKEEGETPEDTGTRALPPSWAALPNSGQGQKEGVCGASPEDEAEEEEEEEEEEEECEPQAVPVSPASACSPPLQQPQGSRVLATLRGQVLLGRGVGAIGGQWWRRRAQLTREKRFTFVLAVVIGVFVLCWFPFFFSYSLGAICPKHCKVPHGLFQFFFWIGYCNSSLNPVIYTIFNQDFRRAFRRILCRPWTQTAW

Assay [2] concerns the target T3, Alpha-2C adrenergic receptor (Homo sapiens, UniProt P18825).
T3 sequence (P18825 whole entry): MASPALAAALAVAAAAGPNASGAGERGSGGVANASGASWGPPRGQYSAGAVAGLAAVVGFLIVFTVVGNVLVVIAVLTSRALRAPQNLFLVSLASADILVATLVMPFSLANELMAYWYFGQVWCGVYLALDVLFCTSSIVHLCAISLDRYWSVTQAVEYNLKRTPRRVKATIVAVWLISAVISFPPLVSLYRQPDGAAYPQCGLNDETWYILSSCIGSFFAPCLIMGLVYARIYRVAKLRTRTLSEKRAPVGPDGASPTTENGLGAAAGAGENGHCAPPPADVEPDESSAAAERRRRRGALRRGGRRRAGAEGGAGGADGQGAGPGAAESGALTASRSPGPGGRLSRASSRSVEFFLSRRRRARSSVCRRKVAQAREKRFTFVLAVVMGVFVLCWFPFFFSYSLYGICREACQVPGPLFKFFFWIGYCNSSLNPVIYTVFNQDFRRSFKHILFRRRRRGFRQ
The format is functional.

The target of assay [3] is Beta-2 adrenergic receptor (Homo sapiens, UniProt P07550).
The target of assay [4] is T4, Type-1 angiotensin II receptor (Homo sapiens, UniProt P30556).
T4 sequence (P30556 whole entry): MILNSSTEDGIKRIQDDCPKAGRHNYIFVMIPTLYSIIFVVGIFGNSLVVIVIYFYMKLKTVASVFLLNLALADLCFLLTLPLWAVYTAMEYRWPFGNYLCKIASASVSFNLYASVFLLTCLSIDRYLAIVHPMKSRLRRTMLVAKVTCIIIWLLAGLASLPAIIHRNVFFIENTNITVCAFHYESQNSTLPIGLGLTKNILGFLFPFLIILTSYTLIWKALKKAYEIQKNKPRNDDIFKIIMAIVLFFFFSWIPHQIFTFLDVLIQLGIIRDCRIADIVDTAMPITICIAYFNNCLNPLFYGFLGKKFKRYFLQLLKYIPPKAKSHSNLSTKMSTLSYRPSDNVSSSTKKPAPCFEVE

In another assay the target is T5, B2 bradykinin receptor (Homo sapiens, UniProt P30411).
T5 sequence (P30411 whole entry): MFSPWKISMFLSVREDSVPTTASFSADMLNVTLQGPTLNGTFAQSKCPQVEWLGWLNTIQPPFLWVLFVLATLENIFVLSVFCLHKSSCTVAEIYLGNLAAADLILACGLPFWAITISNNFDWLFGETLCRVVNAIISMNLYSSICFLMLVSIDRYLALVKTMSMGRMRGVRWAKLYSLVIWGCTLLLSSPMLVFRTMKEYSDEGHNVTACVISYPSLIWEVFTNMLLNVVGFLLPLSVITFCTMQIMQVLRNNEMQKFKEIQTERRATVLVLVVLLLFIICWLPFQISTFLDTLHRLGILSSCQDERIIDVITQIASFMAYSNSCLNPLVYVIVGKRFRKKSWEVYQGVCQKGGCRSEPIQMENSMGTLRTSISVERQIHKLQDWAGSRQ

Assay [5] concerns the target Neuronal acetylcholine receptor subunit alpha-4 (Homo sapiens, UniProt P43681).
Assay [6] concerns the target T6, Gamma-aminobutyric acid receptor subunit alpha-1 (Rattus norvegicus, UniProt P62813).
The target of assay [7] is T6, Gamma-aminobutyric acid receptor subunit alpha-1. The format is functional.
The target in assay [8] is T7, 5-hydroxytryptamine receptor 2C (Homo sapiens, UniProt P28335).
T7 sequence (P28335 whole entry): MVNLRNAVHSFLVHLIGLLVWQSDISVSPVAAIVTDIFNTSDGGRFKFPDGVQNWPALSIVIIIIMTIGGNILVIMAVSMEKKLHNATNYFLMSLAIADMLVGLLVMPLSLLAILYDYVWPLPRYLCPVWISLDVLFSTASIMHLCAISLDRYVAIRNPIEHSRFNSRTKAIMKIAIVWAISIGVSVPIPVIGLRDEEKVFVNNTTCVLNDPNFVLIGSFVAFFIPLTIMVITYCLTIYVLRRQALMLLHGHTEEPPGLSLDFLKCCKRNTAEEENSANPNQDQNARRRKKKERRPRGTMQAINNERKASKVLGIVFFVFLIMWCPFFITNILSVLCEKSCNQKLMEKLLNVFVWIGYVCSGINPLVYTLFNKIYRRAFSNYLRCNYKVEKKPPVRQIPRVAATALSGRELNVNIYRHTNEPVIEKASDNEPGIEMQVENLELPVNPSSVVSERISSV

In assay [9] the target is Kappa-type opioid receptor (Homo sapiens, UniProt P41145).
Note: assay procedure not described here.

Beta-2 adrenergic receptor, sequence (P07550 whole entry): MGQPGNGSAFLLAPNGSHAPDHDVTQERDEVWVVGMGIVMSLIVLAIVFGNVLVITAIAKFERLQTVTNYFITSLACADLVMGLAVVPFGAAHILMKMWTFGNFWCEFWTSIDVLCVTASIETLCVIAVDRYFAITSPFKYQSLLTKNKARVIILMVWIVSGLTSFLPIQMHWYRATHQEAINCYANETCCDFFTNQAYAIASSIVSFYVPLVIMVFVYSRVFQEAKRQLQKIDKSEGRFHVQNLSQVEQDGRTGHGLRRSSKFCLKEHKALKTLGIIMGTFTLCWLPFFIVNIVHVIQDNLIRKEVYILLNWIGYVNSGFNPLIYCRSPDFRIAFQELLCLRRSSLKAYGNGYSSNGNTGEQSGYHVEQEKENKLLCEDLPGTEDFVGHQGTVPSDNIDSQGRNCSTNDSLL
Neuronal acetylcholine receptor subunit alpha-4, sequence (P43681 whole entry): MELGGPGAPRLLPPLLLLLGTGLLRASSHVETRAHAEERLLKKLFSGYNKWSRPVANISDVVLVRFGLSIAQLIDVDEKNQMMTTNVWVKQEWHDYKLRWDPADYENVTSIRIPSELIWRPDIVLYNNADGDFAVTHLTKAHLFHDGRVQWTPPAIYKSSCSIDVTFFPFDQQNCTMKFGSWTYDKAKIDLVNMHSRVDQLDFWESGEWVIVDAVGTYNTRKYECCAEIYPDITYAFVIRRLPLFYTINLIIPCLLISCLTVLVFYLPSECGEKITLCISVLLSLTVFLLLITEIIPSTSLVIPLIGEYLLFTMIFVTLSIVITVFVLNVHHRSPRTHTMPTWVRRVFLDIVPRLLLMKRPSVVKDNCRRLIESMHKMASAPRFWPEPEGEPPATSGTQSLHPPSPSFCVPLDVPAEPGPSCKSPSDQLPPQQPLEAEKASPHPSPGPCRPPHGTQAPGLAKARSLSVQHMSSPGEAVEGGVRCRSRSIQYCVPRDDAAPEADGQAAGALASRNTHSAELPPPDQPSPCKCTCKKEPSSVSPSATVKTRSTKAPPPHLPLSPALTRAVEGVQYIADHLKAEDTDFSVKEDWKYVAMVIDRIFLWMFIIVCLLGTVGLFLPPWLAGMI
Kappa-type opioid receptor, sequence (P41145 whole entry): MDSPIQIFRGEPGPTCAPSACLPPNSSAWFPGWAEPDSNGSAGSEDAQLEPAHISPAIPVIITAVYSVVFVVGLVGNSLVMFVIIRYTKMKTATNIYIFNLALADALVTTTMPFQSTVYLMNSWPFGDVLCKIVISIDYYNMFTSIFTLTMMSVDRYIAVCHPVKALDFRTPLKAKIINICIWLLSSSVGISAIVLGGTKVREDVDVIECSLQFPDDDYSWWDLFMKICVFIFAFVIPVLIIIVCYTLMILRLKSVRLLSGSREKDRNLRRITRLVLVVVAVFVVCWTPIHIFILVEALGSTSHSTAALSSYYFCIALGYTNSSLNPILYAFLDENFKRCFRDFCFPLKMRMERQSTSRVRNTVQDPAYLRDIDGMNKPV
T6 sequence (P62813 whole entry): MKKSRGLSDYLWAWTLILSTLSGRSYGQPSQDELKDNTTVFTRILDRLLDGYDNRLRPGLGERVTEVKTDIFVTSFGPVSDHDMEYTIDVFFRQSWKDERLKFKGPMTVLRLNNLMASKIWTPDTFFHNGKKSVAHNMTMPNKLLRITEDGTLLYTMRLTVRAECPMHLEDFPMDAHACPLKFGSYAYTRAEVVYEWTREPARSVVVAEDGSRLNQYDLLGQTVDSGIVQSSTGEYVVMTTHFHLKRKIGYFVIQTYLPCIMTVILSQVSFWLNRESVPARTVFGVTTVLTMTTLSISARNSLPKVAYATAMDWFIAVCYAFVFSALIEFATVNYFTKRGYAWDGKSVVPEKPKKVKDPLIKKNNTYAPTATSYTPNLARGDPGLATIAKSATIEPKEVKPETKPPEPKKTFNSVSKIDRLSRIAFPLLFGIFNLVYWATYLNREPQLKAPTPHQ
Adenosine receptor A2a, sequence (P29274 whole entry): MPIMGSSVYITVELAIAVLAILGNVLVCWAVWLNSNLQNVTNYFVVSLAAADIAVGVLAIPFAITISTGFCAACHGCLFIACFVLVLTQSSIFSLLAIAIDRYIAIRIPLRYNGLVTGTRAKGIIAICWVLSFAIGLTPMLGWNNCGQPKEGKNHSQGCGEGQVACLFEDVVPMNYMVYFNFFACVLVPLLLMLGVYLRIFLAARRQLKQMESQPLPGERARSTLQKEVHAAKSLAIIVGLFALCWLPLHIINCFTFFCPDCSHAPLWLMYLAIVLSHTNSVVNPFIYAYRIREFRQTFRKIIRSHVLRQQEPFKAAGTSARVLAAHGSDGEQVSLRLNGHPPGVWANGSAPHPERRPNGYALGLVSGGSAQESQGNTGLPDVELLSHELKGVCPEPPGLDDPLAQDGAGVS
Histamine H1 receptor, sequence (P35367 whole entry): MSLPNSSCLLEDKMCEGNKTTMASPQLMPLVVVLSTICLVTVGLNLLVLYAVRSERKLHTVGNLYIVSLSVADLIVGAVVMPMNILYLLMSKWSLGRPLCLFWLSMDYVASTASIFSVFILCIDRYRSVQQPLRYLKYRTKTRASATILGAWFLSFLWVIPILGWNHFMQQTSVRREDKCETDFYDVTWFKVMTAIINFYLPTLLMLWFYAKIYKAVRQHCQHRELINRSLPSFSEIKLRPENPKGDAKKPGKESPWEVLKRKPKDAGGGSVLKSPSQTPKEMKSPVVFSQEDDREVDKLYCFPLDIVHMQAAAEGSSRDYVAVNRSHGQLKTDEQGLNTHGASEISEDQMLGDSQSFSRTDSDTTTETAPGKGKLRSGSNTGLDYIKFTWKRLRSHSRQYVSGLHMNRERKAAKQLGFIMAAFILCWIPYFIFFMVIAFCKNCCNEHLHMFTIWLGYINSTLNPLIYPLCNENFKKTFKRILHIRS
Motilin receptor, sequence (O43193 whole entry): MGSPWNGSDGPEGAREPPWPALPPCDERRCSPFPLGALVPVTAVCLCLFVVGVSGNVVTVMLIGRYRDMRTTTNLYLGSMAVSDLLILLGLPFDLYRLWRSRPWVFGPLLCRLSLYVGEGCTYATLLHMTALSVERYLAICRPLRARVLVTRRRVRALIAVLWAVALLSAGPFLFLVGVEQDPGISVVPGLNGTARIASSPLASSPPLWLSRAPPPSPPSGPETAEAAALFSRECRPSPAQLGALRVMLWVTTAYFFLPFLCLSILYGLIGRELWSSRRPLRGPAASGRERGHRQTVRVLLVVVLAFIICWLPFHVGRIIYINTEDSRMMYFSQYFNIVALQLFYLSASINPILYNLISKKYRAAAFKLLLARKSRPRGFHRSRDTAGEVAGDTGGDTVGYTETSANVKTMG

Regarding `CCN(CC)C(=O)Nc1ccc(OCC(O)CNC(C)(C)C)c(C(C)=O)c1` (stereo not drawn) [CELIPROLOL], the AC50 was greater than 30 µM on Adenosine receptor A2a; greater than 30 µM on Adenosine receptor A3; greater than 30 µM in [1]; greater than 30 µM in assay [2]; 4.6 µM in assay [3]; greater than 30 µM in assay [4]. Also, the AC50 (at B2 bradykinin receptor; in [5]; in assay [6]; in assay [7]; on Histamine H1 receptor; in assay [8]) was greater than 30 µM each time. Moreover, the AC50 (at Motilin receptor; in assay [9]) was greater than 30 µM throughout.

On to `COc1ccc(-c2noc(CC(=O)O)c2-c2ccc(OC)cc2)cc1` [MOFEZOLAC], for which the AC50 (on Adenosine receptor A2a; at Adenosine receptor A3; in [1]; in [2]; in [3]; in [4]) was greater than 30 µM throughout. The AC50 (on B2 bradykinin receptor; in assay [5]; in [6]; in assay [7]; at Histamine H1 receptor; in assay [8]) was greater than 30 µM in each case. For the same compound, the AC50 (on Motilin receptor; in assay [9]) was greater than 30 µM throughout.

Consider `CC(=O)O[C@H](CC(=O)[O-])C[N+](C)(C)C` [ACETYLCARNITINE], for which the AC50 (at Adenosine receptor A2a; at Adenosine receptor A3; in [1]; in assay [2]; in assay [3]; in assay [4]) was greater than 30 µM throughout. In addition, the half-maximal activity concentration (AC50) at B2 bradykinin receptor was greater than 30 µM; in [5] it was greater than 30 µM; in assay [6], greater than 30 µM; in assay [7], greater than 30 µM; at Histamine H1 receptor, 5.2 µM; in [8], greater than 30 µM. In addition, the AC50 (at Motilin receptor; in [9]) was greater than 30 µM throughout.

Regarding `O=C1CN=C(c2ccccn2)c2cc(Br)ccc2N1` [BROMAZEPAM], the AC50 (at Adenosine receptor A2a; on Adenosine receptor A3; in [1]; in assay [2]; in assay [3]; in assay [4]) was greater than 10 µM each time. For the same compound, the AC50 at B2 bradykinin receptor is greater than 10 µM; in assay [5], greater than 10 µM; in assay [6] it was greater than 10 µM; in assay [7], 0.11 µM; on Histamine H1 receptor it was greater than 10 µM; in [8], greater than 30 µM. The AC50 (on Motilin receptor; in assay [9]) was greater than 10 µM each time.

For the compound `CCOC(=O)O[C@]1(C(=O)OCCl)CC[C@H]2[C@@H]3CCC4=CC(=O)C=C[C@]4(C)[C@H]3[C@@H](O)C[C@@]21C` [LOTEPREDNOL ETABONATE], the AC50 (at Adenosine receptor A2a; at Adenosine receptor A3; in assay [1]; in assay [2]; in assay [3]; in assay [4]) was greater than 30 µM throughout. Moreover, the AC50 (on B2 bradykinin receptor; in [5]; in assay [6]; in assay [7]; at Histamine H1 receptor; in [8]) was greater than 30 µM throughout. For the same compound, the AC50 (on Motilin receptor; in assay [9]) was greater than 30 µM throughout.

Regarding `CC1=C(C)C(=O)C(C(CCCCCC(=O)O)c2ccccc2)=C(C)C1=O` (stereo not drawn) [SERATRODAST], the AC50 (on Adenosine receptor A2a; on Adenosine receptor A3; in assay [1]; in assay [2]; in assay [3]; in assay [4]) was greater than 30 µM throughout. The AC50 (on B2 bradykinin receptor; in assay [5]; in assay [6]; in [7]; at Histamine H1 receptor; in assay [8]) was greater than 30 µM each time. Moreover, the concentration at half-maximal activity (AC50) (at Motilin receptor; in assay [9]) was greater than 30 µM each time.

Turning to `C=C1/C(=C\C=C2/CCC[C@]3(C)[C@@H]([C@H](C)/C=C/[C@@H](O)C4CC4)CC[C@@H]23)C[C@@H](O)C[C@@H]1O` [CALCIPOTRIENE], the AC50 at Adenosine receptor A2a was greater than 30 µM; on Adenosine receptor A3, 12 µM; in [1], greater than 30 µM; in [2] it was greater than 30 µM; in assay [3], greater than 30 µM; in assay [4], greater than 30 µM. The AC50 (at B2 bradykinin receptor; in [5]; in assay [6]; in [7]; on Histamine H1 receptor; in assay [8]) was greater than 30 µM each time. The AC50 (on Motilin receptor; in [9]) was greater than 30 µM throughout.

By AC50 is commonly meant the concentration giving half of the maximal activity seen. Low readings indicate activity at low concentration, high ones activity only at high concentration.
